Reference: patent US10131652B2, “Pyrimidinyloxy benzene derivatives as herbicides” (E. I. DU PONT DE NEMOURS AND COMPANY, priority 2014, dated 2018)

Key:
Type in all cases: in vivo
[1] = system: ragweed (common ragweed, Ambrosia elatior); test: Test B pre-/postemergence plant response
Outline: (§1)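 Scoring used a 0–100 scale (100 = complete control) by visual comparison with untreated plants after approximately 10 days in the greenhouse. Compounds, in surfactant-containing non-phytotoxic solvent, were sprayed onto soil at planting or onto 2–10 cm seedlings.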

[2] = system: kochia (Kochia scoparia); test: Test B pre-/postemergence plant response
Outline: as §1

[3] = system: corn (Zea mays); test: Test B pre-/postemergence plant response
Outline: as §1

[4] = system: pigweed (Amaranthus retroflexus); test: Test B pre-/postemergence plant response
Outline: as §1

[5] = system: barnyardgrass (Echinochloa crus-galli); test: Test B pre-/postemergence plant response
Outline: as §1

[6] = system: Italian ryegrass (Lolium multiflorum); test: Test B pre-/postemergence plant response
Outline: as §1

[7] = system: wheat (Triticum aestivum); test: Test B pre-/postemergence plant response
Outline: as §1

[8] = system: giant foxtail (Setaria faberii); test: Test B pre-/postemergence plant response
Outline: as §1

[9] = system: small-flower umbrella sedge (Cyperus difformis); test: Test C flooded paddy test plant response; conditions: Flood, 250 g ai/ha; scale of 0 to 100 where 0 is no effect and 100 is complete control; 13 to 15 days
Outline: (§2)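 Two-leaf stage → flood to 3 cm → compound into water → hold depth, greenhouse 13–15 d → visual score vs controls (0 none, 100 complete control).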

[10] = system: rice (Oryza sativa); test: Test C flooded paddy test plant response; conditions: Flood, 250 g ai/ha; scale of 0 to 100 where 0 is no effect and 100 is complete control; 13 to 15 days
Outline: as §2

[11] = system: barnyardgrass (Echinochloa crus-galli); test: Test C flooded paddy test plant response; conditions: Flood, 250 g ai/ha; scale of 0 to 100 where 0 is no effect and 100 is complete control; 13 to 15 days
Outline: as §2

[12] = system: ducksalad (Heteranthera limosa); test: Test C flooded paddy test plant response; conditions: Flood, 250 g ai/ha; scale of 0 to 100 where 0 is no effect and 100 is complete control; 13 to 15 days
Outline: as §2

[13] = system: galium (catchweed bedstraw, Galium aparine); test: Test B postemergence plant response
Outline: (§3)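 Pots, loam soil + sand; postemergence treatment at 1–2 leaf stage, 2–10 cm; greenhouse ~10 d; visual injury score 0 (none) to 100 (complete control) relative to untreated controls.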

[14] = system: blackgrass (Alopecurus myosuroides); test: Test B postemergence plant response
Outline: as §3

[15] = 31 g ai/ha, Preemergence, 0 to 100 scale where 0 is no effect and 100 is complete control
[16] = 125 g ai/ha, postemergence, 0 to 100 scale, 0 no effect, 100 complete control
[17] = Preemergence, 125 g ai/ha, 0 to 100 scale (0 no effect, 100 complete control)
[18] = 31 g ai/ha, Postemergence, 0 to 100 scale, 0 no effect, 100 complete control
[19] = Postemergence, 500 g ai/ha, 0 to 100 scale (0 no effect, 100 complete control)
[20] = Preemergence, 500 g ai/ha, 0 to 100 scale where 0 is no effect and 100 is complete control

Row | SMILES | Plant response rating, Ragweed [1, 16] | Ragweed plant response rating [1, 17] | Plant response rating, Kochia [2, 16] | Kochia plant response rating [2, 17] | Plant response rating, Corn [3, 16] | Plant response rating, Pigweed [4, 16] | Pigweed plant response rating [4, 17] | Plant response rating, Barnyardgrass [5, 16] | Barnyardgrass plant response rating [5, 17] | Plant response rating, Ryegrass, Italian [6, 16] | Ryegrass, Italian plant response rating [6, 17] | Plant response rating, Wheat [7, 16] | Plant response rating, Foxtail, Giant [8, 16] | Foxtail, Giant plant response rating [8, 17] | Sedge, Umbrella plant response rating [9] | Rice plant response rating [10] | Barnyardgrass plant response rating [11] | Ducksalad plant response rating [12] | Plant response rating, Galium [13, 16] | Plant response rating, Blackgrass [14, 16] | also measured
1 | FC(c1cc(-c2ccccc2Oc2ncc(Cl)cn2)no1)C(F)(F)F (stereo not drawn) [Compound 133] | 30 | 10 | 90 | 90 | 30 | 100 | 100 | 60 | 70 | 30 | 50 | 10 | 50 | 90 | 80 | 40 | 40 | 80 | 100 | 70 | Plant response rating, Ragweed [1, 15]: 0; Plant response rating, Kochia [2, 15]: 50; Plant response rating, Corn [3, 18]: 10; Plant response rating, Pigweed [4, 15]: 90; Plant response rating, Barnyardgrass [5, 18]: 20; Plant response rating, Barnyardgrass [5, 15]: 30; Plant response rating, Ryegrass, Italian [6, 15]: 0; Plant response rating, Foxtail, Giant [8, 18]: 20; Plant response rating, Foxtail, Giant [8, 15]: 70; Plant response rating, Blackgrass [14, 18]: 30
2 | FC(F)(F)c1csc(-c2ccccc2Oc2ncc(Cl)cn2)n1 [Compound 137] | 0 | 0 | 0 | 0 | 0 | 30 | 0 | 0 | 0 | 0 | 0 | 0 | 0 | 0 | 0 | 0 | 0 | 20 | 0 | 0 | Plant response rating, Ragweed [1, 19]: 0; Plant response rating, Ragweed [1, 20]: 0; Plant response rating, Kochia [2, 19]: 60; Plant response rating, Kochia [2, 20]: 10; Plant response rating, Corn [3, 19]: 20; Plant response rating, Pigweed [4, 19]: 90; Plant response rating, Pigweed [4, 20]: 20; Plant response rating, Barnyardgrass [5, 19]: 10; Plant response rating, Barnyardgrass [5, 20]: 10; Plant response rating, Ryegrass, Italian [6, 19]: 0; Plant response rating, Ryegrass, Italian [6, 20]: 0; Plant response rating, Wheat [7, 19]: 0; Plant response rating, Foxtail, Giant [8, 19]: 20; Plant response rating, Foxtail, Giant [8, 20]: 0; Plant response rating, Galium [13, 19]: 20; Plant response rating, Blackgrass [14, 19]: 0
